Results taken from paper PMC8710297, “Identification of potent SENP1 inhibitors that inactivate SENP1/JAK2/STAT signaling pathway and overcome platinum drug resistance in ovarian cancer” (Clinical and Translational Medicine, 2021).

How the values were obtained:
IGROV1 CR cells [1] = test: Drug synergy screening: SRB proliferation assay with 2 μM cisplatin; type: cell-based
Protocol: (A) Collection of Momordin Ic (Mc) natural compound analogues. […] Cell proliferation was determined by the sulforhodamine B (SRB) assay. […] IGROV1 CR cells were incubated with Mc at indicated concentrations for 48 h and then harvested for Western blot for indicated proteins. […] IGROV1 CR cells were incubated with UA and then treated as in C. […] Intensity of SUMOylated JAK2 was measured by Quantity One software. […] Recombinant His‐JAK2 was SUMOylated by in vitro SUMOylation assay, and then SUMOylated JAK2 proteins were incubated with or without recombinant GST‐SENP1 together with Mc for 3 h. […] In vitro assay was performed as in (F). […]

IGROV1 CR cells [2] = test: Viability of IGROV1 CR cells treated with compound alone (SRB); type: cell-based; conditions: 48 hrs
Protocol: Cel l proliferation was determined by SR B assay. (B) Viability of IG ROV 1 CR cells treated by indicated compounds fo r 48 hrs. SRB assay wa s used to determine cell viabil ity. […]
1. Antibodies and re a ge nt s […]
[…] Momordin Ic ( A14773; Adooq Biosc ience) was dissolved in DMSO. Ursolic acid (A10961; Adooq Bioscience) wa s dissolved in DMSO. Collection of Mc natural compound an alogs were pu rch ase d fro m Sigma. Detailed proced ure to sy nt h e s ize UA derivatives was in c lu d ed in suppleme ntal material and methods.
2. Cell culture and resistance cell line establishment […]
were cultured at 37 °C in DM EM with 10% Fe ta l Bovine Serum (F BS). All th e cells were cultured at in a humidified incubator with 5% CO2 atmo s phe re.
3. In vitro SUMOylation and de‐SU MOylation assays
The SUMO yl ation re ac tions were performed according to th e manufacture’s instruction (BML‐UW8955‐ 0001; ENZO) and were described previously (1) . Briefly, 200 nM of purified HIS‐JAK 2 wa s mixed wit h reco mbinant SUMOs in reac ti on bu ffer (20 μl) containing Mg‐ AT P, SUMO E1, and SUMO E2, followed by incubation at 37°C fo r 60 min. […]
Cell viability was detected using Sulforhodamine B (SRB) assay as described previously (3).
Absorbance at 51 0 nm was detected using a SpectraMax Re a d e r (Molecular Devices) and an alyzed with SoftMax Analys is Software (Molecular Devices). […]

Compound | IC50 of UA derivatives to inhibit resistant cells together with cisplatin (in words) (IGROV1 CR cells [1]) | toxicity to cells of compound alone (IGROV1 CR cells [2])
C[C@H]1[C@H](C)CC[C@]2(C(=O)OCCNC(=O)OC(C)(C)C)CC[C@]3(C)C(=CC[C@@H]4[C@@]5(C)CC[C@H](O)C(C)(C)[C@@H]5CC[C@]43C)[C@H]12 [UAMMC3] | lower IC50 | higher toxicity
C[C@H]1[C@H](C)CC[C@]2(C(=O)OCC(=O)NCCO)CC[C@]3(C)C(=CC[C@@H]4[C@@]5(C)CC[C@H](O)C(C)(C)[C@@H]5CC[C@]43C)[C@H]12 [UAMMC5] | lower IC50 | higher toxicity
